Results reported in patent US7083982B2, “Helium-neon excitable reticulocyte dyes derivable from halolepidines” (Abbott Laboratories, priority 1996, dated 2006).

What was measured:
[1] = Absorption maximum of the dye; format: physicochemical; details: for absorption maximum in methanol: in methanol solution
Description: The following table sets forth the absorption maximum in nanometers for several dyes suitable for use in this invention.
To the activated 3-ethyl-2-methylbenzothiazolium derivative obtained above (4.5 mg) was added the 7-chloro-1-methyllepidinium salt obtained above (3.8 mg) in chloroform (250 μL) to form a mixture. Then triethylamine (50 μL) was added to the mixture. The resulting mixture was stirred at reflux for 30 minutes, during which time a dark blue solution was obtained. Diethyl ether was added to the solution and the resultant suspension was centrifuged. The supernatant was discarded and the precipitate resuspended in diethyl ether and centrifuged (2 times). The dark powder absorbed maximally at 638 nm in methanol solution.

[2] = Fluorescence of dye only in CD4000 Retic Buffer, flow cytometer with helium-neon laser; format: physicochemical
Description: (§1) Fluorescence was determined by dissolving the dye in a buffer (“CD4000 Retic Buffer”) at neutral pH and at a final concentration of 0.5 μg/ml of test solution. The “CD4000 Retic Buffer” contained the following ingredients in the amounts indicated: The tests were run in a flow cytometer with a helium-neon laser light source. The helium-neon laser provided light at a wavelength of 630 nm. The optical system was a conventional optical system.

RNA = assay: Fluorescence of dye with RNA in CD4000 Retic Buffer, flow cytometer with helium-neon laser
Description: as §1

DNA = assay: Fluorescence of dye with DNA in CD4000 Retic Buffer, flow cytometer with helium-neon laser
Description: as §1

[3] = fluorescence relative to dye only intensity 1.0

SMILES	Absorption maximum (nm) [1]	absorption maximum in methanol [1]	further results
CN1C=C/C(=C\C=C\c2oc3ccc4ccccc4c3[n+]2C)c2ccc(Cl)cc21 [Dye 9]	624 nm	624 nm	–
CN1C=C/C(=C\C=C\c2sc3ccccc3[n+]2C)c2ccc(Br)cc21 [Dye 5]	638 nm	–	–
CN1C=C/C(=C\C=C\c2sc3ccccc3[n+]2C)c2ccc(Cl)cc21 [Dye 8]	–	638 nm	–
CN1C=C/C(=C\C=C\c2sc3ccccc3[n+]2C)c2ccc(F)cc21 [Dye 2]	628 nm	–	–
CN1C=C/C(=C\C=C\C2=[N+](C)c3ccc4ccccc4c3C2(C)C)c2ccc(Cl)cc21 [Dye 6]	–	623 nm	–
CC[n+]1c(/C=C/C=C2\C=CN(C)c3cc(Cl)ccc32)sc2ccccc21 [Dye 7]	638 nm	638 nm	Emission wavelength - dye only (nm) ([2]; 0.5 μg/ml, neutral pH, 630 nm laser): 655.6 nm; Bandwidth ([2]; emission): 45; Bandwidth with RNA (RNA; emission, with RNA): 36; Enhancement with RNA (RNA; [3]): 39.1; Emission wavelength with RNA (nm) (RNA; with RNA, 0.5 μg/ml, neutral pH, 630 nm laser): 671.2 nm; Bandwidth with DNA (DNA; emission, with DNA): 35; Enhancement with DNA (DNA; [3]): 50.4; Emission wavelength with DNA (nm) (DNA; with DNA, 0.5 μg/ml, neutral pH, 630 nm laser): 661.8 nm
